pIC50: −log10 of the molar value.
How the values were obtained:
[1] = Antiproliferative activity against human HOP62 cells assessed as cell growth at 10 uM measured after 48 hrs by sulforhodamine B assay relative to control; format: functional; conditions: HOP-62, 48 h, read-out: Activity
[2] = Antiproliferative activity against human NCI-H460 cells assessed as cell growth at 10 uM measured after 48 hrs by sulforhodamine B assay relative to control; format: functional; conditions: NCI-H460, 48 h, read-out: Activity
[3] = Antiproliferative activity against human HCC827 cells assessed as reduction in cell viability measured after 72 hrs by MTT assay; format: functional, cell-based; conditions: HCC827, 72 h
[4] = Growth inhibition of human NCI-H522 cells measured after 48 hrs by sulforhodamine B assay; format: functional; conditions: NCI-H522, 48 h
[5] = Antiproliferative activity against human EKVX cells assessed as cell growth at 10 uM measured after 48 hrs by sulforhodamine B assay relative to control; format: functional; conditions: read-out: Activity
[6] = Growth inhibition of human HOP62 cells measured after 48 hrs by sulforhodamine B assay; format: functional; conditions: HOP-62, 48 h; for CC50: read-out: LC50 (the source's name)
[7] = Antiproliferative activity against human NCI-H1975 cells assessed as reduction in cell viability measured after 72 hrs by MTT assay; format: functional, cell-based; conditions: NCI-H1975, 72 h
[8] = Growth inhibition of human NCI-H23 cells measured after 48 hrs by sulforhodamine B assay; format: functional; conditions: NCI-H23, 48 h; for CC50: read-out: LC50 (the source's name)
[9] = Antiproliferative activity against human A549/ATCC cells assessed as cell growth at 10 uM measured after 48 hrs by sulforhodamine B assay relative to control; format: functional; conditions: A549, 48 h, read-out: Activity
[10] = Growth inhibition of human EKVX cells measured after 48 hrs by sulforhodamine B assay; format: functional; conditions: for CC50: read-out: LC50 (the source's name)
[11] = Antiproliferative activity against human NCI-H226 cells assessed as cell growth at 10 uM measured after 48 hrs by sulforhodamine B assay relative to control; format: functional; conditions: NCI-H226, 48 h, read-out: Activity
[12] = Antiproliferative activity against human NCI-H322M cells assessed as cell growth at 10 uM measured after 48 hrs by sulforhodamine B assay relative to control; format: functional; conditions: read-out: Activity
[13] = Antiproliferative activity against human HOP92 cells assessed as cell growth at 10 uM measured after 48 hrs by sulforhodamine B assay relative to control; format: functional; conditions: HOP-92, 48 h, read-out: Activity
[14] = Growth inhibition of human NCI-H322M cells measured after 48 hrs by sulforhodamine B assay; format: functional; conditions: for CC50: read-out: LC50 (the source's name)
[15] = Growth inhibition of human NCI-H226 cells measured after 48 hrs by sulforhodamine B assay; format: functional; conditions: NCI-H226, 48 h; for CC50: read-out: LC50 (the source's name)
[16] = Antiproliferative activity against human NCI-H23 cells assessed as cell growth at 10 uM measured after 48 hrs by sulforhodamine B assay relative to control; format: functional; conditions: NCI-H23, 48 h, read-out: Activity
[17] = Antiproliferative activity against human NCI-H460 cells assessed as reduction in cell viability measured after 72 hrs by MTT assay; format: functional, cell-based; conditions: NCI-H460, 72 h; for CC50: read-out: LC50 (the source's name)
[18] = Antiproliferative activity against human NCI-H522 cells assessed as cell growth at 10 uM measured after 48 hrs by sulforhodamine B assay relative to control; format: functional; conditions: NCI-H522, 48 h, read-out: Activity
[19] = Growth inhibition of human HOP92 cells measured after 48 hrs by sulforhodamine B assay; format: functional; conditions: HOP-92, 48 h; for CC50: read-out: LC50 (the source's name)
[20] = Antiproliferative activity against human A549 cells assessed as reduction in cell viability measured after 72 hrs by MTT assay; format: functional, cell-based; conditions: A549, 72 h
[21] = Aqueous solubility of the compound; format: physicochemical; conditions: buffer

c1ccc2cc(Cn3cc[n+](Cc4ccc5ccccc5c4)c3)ccc2c1
growth at 10 µM [1]: 42.1%
growth at 10 µM [2]: 39.6%
pIC50 [3]: 5.05
GI50 [4]: 0.393 µM
LC50 (50% lethal concentration) [4]: 26.8 µM
TGI [4]: 3.11 µM
growth at 10 µM [5]: 51.6%
GI50 [6]: 3.26 µM
TGI [6]: 17 µM
CC50 [6]: 45.9 µM
pIC50 [7]: 5.22
GI50 [8]: 0.901 µM
TGI [8]: 10.1 µM
CC50 [8]: 39.4 µM
growth at 10 µM [9]: 67.6%
GI50 [10]: 2.51 µM
TGI [10]: 15.5 µM
CC50 [10]: 4.75 µM
growth at 10 µM [11]: 52.1%
growth at 10 µM [12]: 62.8%
growth at 10 µM [13]: -13.3%
GI50 [14]: 8.4 µM
TGI [14]: 21.3 µM
CC50 [14]: 47.3 µM
GI50 [15]: 1.72 µM
TGI [15]: 14.3 µM
CC50 [15]: 71.9 µM
growth at 10 µM [16]: 41.6%
GI50 [17]: 1.27 µM
pIC50 [17]: 5.40
TGI [17]: 10.4 µM
CC50 [17]: 42 µM
growth at 10 µM [18]: -11.7%
GI50 [19]: 0.16 µM
TGI [19]: 1.39 µM
CC50 [19]: 15.2 µM
GI50 [20]: 7.97 µM
LC50 [20]: 55.3 µM
TGI [20]: 22.9 µM

CCc1n(Cc2ccc3ccccc3n2)cc[n+]1Cc1ccc2ccccc2c1.[Br-]
growth at 10 µM [1]: 1.85%
growth at 10 µM [2]: 11.1%
pIC50 [3]: 5.30
GI50 [4]: 0.275 µM
LC50 (50% lethal concentration) [4]: 13.3 µM
TGI [4]: 0.986 µM
growth at 10 µM [5]: 15.9%
GI50 [6]: 1.4 µM
TGI [6]: 7.02 µM
CC50 [6]: 32.1 µM
pIC50 [7]: > 6.00
GI50 [8]: 0.311 µM
TGI [8]: 3.23 µM
CC50 [8]: 37 µM
growth at 10 µM [9]: 37.3%
GI50 [10]: 0.442 µM
TGI [10]: 7.34 µM
CC50 [10]: 38.7 µM
solubility [21]: 5 mM
growth at 10 µM [11]: 19.6%
growth at 10 µM [12]: 34.8%
growth at 10 µM [13]: -20.1%
GI50 [14]: 2.86 µM
TGI [14]: 13.8 µM
CC50 [14]: 38.1 µM
GI50 [15]: 1.06 µM
TGI [15]: 4.87 µM
CC50 [15]: 39.4 µM
growth at 10 µM [16]: -4.2%
GI50 [17]: 0.456 µM
pIC50 [17]: 5.70
TGI [17]: 10.8 µM
CC50 [17]: 49.5 µM
growth at 10 µM [18]: -27.4%
GI50 [19]: 0.184 µM
TGI [19]: 0.671 µM
CC50 [19]: 7.04 µM
GI50 [20]: 0.997 µM
pIC50 [20]: 5.52
LC50 [20]: 46.1 µM
TGI [20]: 14.1 µM

Cc1n(Cc2ccc3ccccc3n2)cc[n+]1Cc1ccc2ccccc2n1.[Cl-]
growth at 10 µM [1]: 90.5%
growth at 10 µM [2]: 95%
pIC50 [3]: 4.89
growth at 10 µM [5]: 80.7%
pIC50 [7]: 5.70
growth at 10 µM [9]: 88.6%
solubility [21]: > 80 mM
growth at 10 µM [11]: 88.1%
growth at 10 µM [12]: 103%
growth at 10 µM [13]: 74.5%
growth at 10 µM [16]: 69.8%
pIC50 [17]: 5.10
growth at 10 µM [18]: 35.9%
pIC50 [20]: 4.82

Cc1n(Cc2ccc3ccccc3n2)cc[n+]1Cc1ccc2ccccc2c1.[Br-]
growth at 10 µM [1]: 13.3%
growth at 10 µM [2]: 10.2%
pIC50 [3]: 5.05
GI50 [4]: 0.271 µM
LC50 (50% lethal concentration) [4]: 12.4 µM
TGI [4]: 1.46 µM
growth at 10 µM [5]: 48.3%
GI50 [6]: 1.53 µM
TGI [6]: 6.66 µM
CC50 [6]: 34.5 µM
pIC50 [7]: > 6.00
GI50 [8]: 1.83 µM
TGI [8]: 13.4 µM
CC50 [8]: 62 µM
growth at 10 µM [9]: 33.5%
GI50 [10]: 3.93 µM
TGI [10]: 27.6 µM
CC50 [10]: > 100 µM
solubility [21]: < 5 mM
growth at 10 µM [11]: 12.7%
growth at 10 µM [12]: 26%
growth at 10 µM [13]: -6.1%
GI50 [14]: 3.27 µM
TGI [14]: 14.7 µM
CC50 [14]: 40.4 µM
GI50 [15]: 1.86 µM
TGI [15]: 10.9 µM
CC50 [15]: 47.5 µM
growth at 10 µM [16]: 2.01%
GI50 [17]: 0.959 µM
pIC50 [17]: 5.70
TGI [17]: 14.4 µM
CC50 [17]: 47 µM
growth at 10 µM [18]: 3.95%
GI50 [19]: 0.518 µM
TGI [19]: 3.81 µM
CC50 [19]: 27 µM
GI50 [20]: 1.31 µM
pIC50 [20]: 5.52
LC50 [20]: 43.5 µM
TGI [20]: 13.1 µM

CCCc1n(Cc2ccc3ccccc3n2)cc[n+]1Cc1ccc2ccccc2c1.[Cl-]
growth at 10 µM [1]: 8.38%
growth at 10 µM [2]: 7.73%
pIC50 [3]: 5.22
GI50 [4]: 0.249 µM
LC50 (50% lethal concentration) [4]: 4.59 µM
TGI [4]: 1.13 µM
growth at 10 µM [5]: 41.6%
GI50 [6]: 1.63 µM
TGI [6]: 5.38 µM
CC50 [6]: 26.1 µM
pIC50 [7]: 5.70
GI50 [8]: 0.479 µM
TGI [8]: 10.6 µM
CC50 [8]: 52 µM
growth at 10 µM [9]: 39.1%
GI50 [10]: 2.16 µM
TGI [10]: 14.9 µM
CC50 [10]: 52.7 µM
solubility [21]: > 10 mM
growth at 10 µM [11]: 12.3%
growth at 10 µM [12]: 25.7%
growth at 10 µM [13]: -18.6%
GI50 [14]: 3.46 µM
TGI [14]: 15 µM
CC50 [14]: 39.6 µM
GI50 [15]: 1.2 µM
TGI [15]: 7.6 µM
CC50 [15]: 39.7 µM
growth at 10 µM [16]: -11.6%
GI50 [17]: 0.658 µM
pIC50 [17]: 5.52
TGI [17]: 10.6 µM
CC50 [17]: 46.5 µM
growth at 10 µM [18]: -0.78%
GI50 [19]: 0.188 µM
TGI [19]: 1.12 µM
CC50 [19]: 9.13 µM
GI50 [20]: 1.88 µM
pIC50 [20]: 5.52
LC50 [20]: 37.3 µM
TGI [20]: 11.8 µM

Source: ChEMBL document CHEMBL3872259, “Synthesis, characterization, and in vitro SAR evaluation of N,N'-bis(arylmethyl)-C2-alkyl substituted imidazolium salts” (Bioorg Med Chem Lett, 2017)
